Data reported in patent US20260200916A1, “6,6 BICYCLIC HETEROCYLES USEFUL AS INHIBITORS OF NOD-LIKE RECEPTOR PROTEIN 3” (Merck Sharp & Dohme LLC, priority 2022, published 2026).

Each molecule was assayed against T1, NLRP3 inflammasome (Homo sapiens, UniProt Q96P20) (assay: ASC-SPECK formation in THP-1 cells after gramicidin stimulation (NLRP3 inflammasome activation)). Conditions: PMA-treated human monocytic THP-1 cells, compound added 1 h before 12.5 ug/ml gramicidin, 3-hour treatment, ASC SPECK imaging; read-out: EC50 (nM), inhibition of NLRP3 inflammasome activation.
T1 construct: host or cells: THP-1 human monocytic cells, PMA-differentiated, gramicidin-stimulated
Type: cell-based
Description: The ability of compounds to inhibit NLRP3 inflammasome activation was determined in vitro by monitoring formation of the ASC-SPECK in human monocytic THP-1 cells after stimulation. THP-1 cells (ATCC catalog #TIB-202) were maintained in complete growth media containing Roswell Park Memorial Institute RPMI (ATCC catalog #30-2001), 10% heat inactivated fetal bovine serum, 1× penicillin/streptomycin and 0.05 mM 2-mercaptoethanol. At the start of the assay, undifferentiated THP-1 cells were plated at a density of 20,000 cells per well in a 384-well plate (Poly-D-lysine coated Cell Carrier Ultra microplate, Perkin Elmer catalog #6057500) in complete growth media supplemented with 10 ng/ml phorbol 12-myristate 13-acetate (PMA; Sigma catalog #P8139), and then incubated overnight. The next day, media was replaced with assay media [RPMI (Gibco catalog #11875-093), 0.01% bovine serum albumin (BSA)]. Compounds were serially diluted in DMSO and then added to wells one hour prior to the addition of 12.5 ug/ml Gramicidin (Enzo Lifescience, catalog #ALX-350-233-M005). All incubations were carried out at 37° C. (5% C02/95% air). Following a 3-hour treatment with gramicidin, cells are fixed with 4% paraformaldehyde and stored at 4° C. until immunofluorescence staining.
Immunofluorescence staining: Anti-ASC antibody (MBL catalog #D086-3) was desalted and labeled with Alexa 488 antibody labeling kit (Thermo catalog #A20181) prior to use as described below. After fixation, the following steps were carried out at room temperature. Cells were first permeabilized with 0.3% Triton X-100 in phosphate-buffered saline (PBS) for 15 minutes and then incubated in blocking buffer containing 5% goat serum, 0.3% tween-20 and 0.03% sodium azide in PBS for 1 hour. Cells were stained with a mixture of ASC-Alexa 488 antibody (diluted 1:200 in blocking buffer) and nuclear stain DRAQ5 (1:5000 in blocking buffer, Thermo catalog #62251) in blocking buffer for 1 hour. Following a wash with 0.3% Tween-20 in PBS, plates were imaged with an Opera Phenix High Content Screening System. The number of DRAQ5 positive cells containing ASC SPECKS were quantified in each well.
Data analysis: EC50 values were calculated by standard curve-fitting analysis using an internally developed program in TIBCO Spotfire software.

T1 sequence (Q96P20 whole entry): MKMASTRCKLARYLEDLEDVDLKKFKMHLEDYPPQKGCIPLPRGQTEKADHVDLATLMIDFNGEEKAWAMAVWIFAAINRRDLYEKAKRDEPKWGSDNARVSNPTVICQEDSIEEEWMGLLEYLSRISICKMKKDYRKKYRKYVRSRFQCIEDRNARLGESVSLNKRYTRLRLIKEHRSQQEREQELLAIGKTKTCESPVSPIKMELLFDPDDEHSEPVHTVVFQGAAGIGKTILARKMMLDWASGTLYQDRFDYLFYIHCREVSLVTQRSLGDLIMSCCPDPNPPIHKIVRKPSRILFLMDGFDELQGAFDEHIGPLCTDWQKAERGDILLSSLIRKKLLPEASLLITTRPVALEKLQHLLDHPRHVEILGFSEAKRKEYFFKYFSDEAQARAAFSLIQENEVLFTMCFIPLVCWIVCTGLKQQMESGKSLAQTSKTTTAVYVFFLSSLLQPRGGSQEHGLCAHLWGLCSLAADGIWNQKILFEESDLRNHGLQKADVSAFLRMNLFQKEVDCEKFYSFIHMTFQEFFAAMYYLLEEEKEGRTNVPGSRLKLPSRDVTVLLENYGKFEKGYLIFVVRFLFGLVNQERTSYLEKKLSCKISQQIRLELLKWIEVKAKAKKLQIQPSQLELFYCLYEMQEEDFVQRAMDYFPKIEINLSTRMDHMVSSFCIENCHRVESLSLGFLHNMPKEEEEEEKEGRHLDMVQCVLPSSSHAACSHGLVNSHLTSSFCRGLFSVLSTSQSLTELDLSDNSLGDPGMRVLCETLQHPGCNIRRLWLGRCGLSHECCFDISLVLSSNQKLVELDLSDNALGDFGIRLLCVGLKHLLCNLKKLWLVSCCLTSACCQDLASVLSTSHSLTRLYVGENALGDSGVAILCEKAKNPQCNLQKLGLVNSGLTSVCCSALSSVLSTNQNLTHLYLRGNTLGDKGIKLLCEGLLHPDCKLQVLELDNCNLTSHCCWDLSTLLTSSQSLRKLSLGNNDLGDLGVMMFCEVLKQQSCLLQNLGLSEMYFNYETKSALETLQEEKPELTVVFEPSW

EC50	Structure (SMILES)
351 nM	Cc1cc(C(F)(F)F)cc(O)c1-c1cc2c(nn1)N(C[C@@H]1C[C@@H](F)CN1S(C)(=O)=O)CCC2 [Example 21, 2-(8-(((2S,4R)-4-fluoro-1-(methylsulfonyl)pyrrolidin-2-yl)methyl)-5,6,7,8-tetrahydropyrido[2,3-c]pyridazin-3-yl)-3-methyl-5-(trifluoromethyl)phenol]
784 nM	Cc1cc(C(F)(F)F)cc(O)c1-c1cc2c(nn1)N(C[C@@H]1C[C@H](F)CN1S(C)(=O)=O)CCC2 [Example 22, 2-(8-(((2S,4S)-4-fluoro-1-(methylsulfonyl)pyrrolidin-2-yl)methyl)-5,6,7,8-tetrahydropyrido[2,3-c]pyridazin-3-yl)-3-methyl-5-(trifluoromethyl)phenol]
874 nM	Cc1cc(C(F)(F)F)cc(O)c1-c1cc2c(nn1)N(C[C@@H]1C[C@@H](F)CN1C(=O)C1CCC1)CCC2 [Example 20, cyclobutyl((2S,4R)-4-fluoro-2-((3-(2-hydroxy-6-methyl-4-(trifluoromethyl)phenyl)-6,7-dihydropyrido[2,3-c]pyridazin-8(5H)-yl)methyl)pyrrolidin-1-yl)methanone]
1430 nM	Cc1cc(C(F)(F)F)cc(O)c1-c1cc2c(nn1)N(C1CC(C)(C)C1O)CCC2 (single isomer, unassigned) [Example 5, 2-(8-((1S,2R or 1R,2S)-2-hydroxy-3,3-dimethylcyclobutyl)-5,6,7,8-tetrahydropyrido[2,3-c]pyridazin-3-yl)-3-methyl-5-(trifluoromethyl)phenol]
431 nM	Cc1cc(C(F)(F)F)cc(O)c1-c1cc2c(nn1)N(C[C@@H]1C[C@@H](F)CN1C(=O)C1CC1)CCC2 [Example 19, cyclopropyl((2S,4R)-4-fluoro-2-((3-(2-hydroxy-6-methyl-4-(trifluoromethyl)phenyl)-6,7-dihydropyrido[2,3-c]pyridazin-8(5H)-yl)methyl)pyrrolidin-1-yl)methanone]
1070 nM	CCN1CCC[C@@H](N2CCCc3c2nnc(-c2ccc(C(F)(F)F)nc2OC(F)F)c3C)C1 [Example 11, (R)-3-(2-(difluoromethoxy)-6-(trifluoromethyl)pyridin-3-yl)-8-(1-ethylpiperidin-3-yl)-4-methyl-5,6,7,8-tetrahydropyrido[2,3-c]pyridazine]
285 nM	Cc1cc(C(F)(F)F)cc(O)c1-c1cc2c(nn1)N([C@H]1C[C@@](C)(O)C1)C[C@H](N)C2 [Example 8, 2-((R)-6-amino-8-((1s,3S)-3-hydroxy-3-methylcyclobutyl)-5,6,7,8-tetrahydropyrido[2,3-c]pyridazin-3-yl)-3-methyl-5-(trifluoromethyl)phenol]
42 nM	Cc1cc(C(F)(F)F)cc(O)c1-c1cc2c(nn1)N([C@H]1C[C@@](C)(O)C1)CCC2 [Example 1, 2-(8-((1s,3s)-3-hydroxy-3-methylcyclobutyl)-5,6,7,8-tetrahydropyrido[2,3-c]pyridazin-3-yl)-3-methyl-5-(trifluoromethyl)phenol]
240 nM	Cc1cc(C(F)(F)F)cc(O)c1-c1cc2c(nn1)N(C[C@@H]1C[C@H](F)CN1)CCC2 [Example 7, 2-(8-(((2S,4S)-4-fluoropyrrolidin-2-yl)methyl)-5,6,7,8-tetrahydropyrido[2,3-c]pyridazin-3-yl)-3-methyl-5-(trifluoromethyl)phenol]
380 nM	CCN1CCC[C@@H](N2CCCc3c2nnc(-c2ccc(C(F)(F)F)cc2OC(F)F)c3C)C1 [Example 10, (R)-3-(2-(difluoromethoxy)-4-(trifluoromethyl)phenyl)-8-(1-ethylpiperidin-3-yl)-4-methyl-5,6,7,8-tetrahydropyrido[2,3-c]pyridazine]
157 nM	Cc1cc(C(F)(F)F)cc(O)c1-c1cc2c(nn1)N([C@@H]1CCCC[C@H]1O)CCC2 [Example 4, 2-(8-((1R,2R)-2-hydroxycyclohexyl)-5,6,7,8-tetrahydropyrido[2,3-c]pyridazin-3-yl)-3-methyl-5-(trifluoromethyl)phenol]
597 nM	CC(=O)N1C[C@@H](F)C[C@H]1CN1CCCc2cc(-c3c(C)cc(C(F)(F)F)cc3O)nnc21 [Example 17, 1-((2S,4S)-4-fluoro-2-((3-(2-hydroxy-6-methyl-4-(trifluoromethyl)phenyl)-6,7-dihydropyrido[2,3-c]pyridazin-8(5H)-yl)methyl)pyrrolidin-1-yl)ethan-1-one]
48 nM	CCN1CCC[C@@H](N2CCCc3c2nnc(-c2ccc(C(F)(F)F)cc2O)c3C)C1 [Example 9, (R)-2-(8-(1-ethylpiperidin-3-yl)-4-methyl-5,6,7,8-tetrahydropyrido[2,3-c]pyridazin-3-yl)-5-(trifluoromethyl)phenol]
118 nM	Cc1cc(C(F)(F)F)cc(O)c1-c1cc2c(nn1)N(C1CC(C)(C)C1O)CCC2 (single isomer, unassigned) [Example 6, 2-(8-((1R,2S or 1S,2R)-2-hydroxy-3,3-dimethylcyclobutyl)-5,6,7,8-tetrahydropyrido[2,3-c]pyridazin-3-yl)-3-methyl-5-(trifluoromethyl)phenol]
692 nM	CCN1C[C@@H](F)C[C@H]1CN1CCCc2cc(-c3c(C)cc(C(F)(F)F)cc3O)nnc21 [Example 15, 2-(8-(((2S,4S)-1-ethyl-4-fluoropyrrolidin-2-yl)methyl)-5,6,7,8-tetrahydropyrido[2,3-c]pyridazin-3-yl)-3-methyl-5-(trifluoromethyl)phenol]
253 nM	CCN1CCC[C@@H](N2CCCc3c2nnc(-c2ccc4occc4c2)c3C)C1 [Example 12, (R)-3-(benzofuran-5-yl)-8-(1-ethylpiperidin-3-yl)-4-methyl-5,6,7,8-tetrahydropyrido[2,3-c]pyridazine]
317 nM	CC(=O)N1C[C@H](F)C[C@H]1CN1CCCc2cc(-c3c(C)cc(C(F)(F)F)cc3O)nnc21 [Example 16, 1-((2S,4R)-4-fluoro-2-((3-(2-hydroxy-6-methyl-4-(trifluoromethyl)phenyl)-6,7-dihydropyrido[2,3-c]pyridazin-8(5H)-yl)methyl)pyrrolidin-1-yl)ethan-1-one]
125 nM	Cc1cc(C(F)(F)F)cc(O)c1-c1cc2c(nn1)N(C13CCCC(O)(C1)C3)CCC2 [Example 3, 5-(3-(2-hydroxy-6-methyl-4-(trifluoromethyl)phenyl)-6,7-dihydropyrido[2,3-c]pyridazin-8(5H)-yl)bicyclo[3.1.1]heptan-1-ol]
204 nM	CCC(=O)N1C[C@H](F)C[C@H]1CN1CCCc2cc(-c3c(C)cc(C(F)(F)F)cc3O)nnc21 [Example 18, 1-((2S,4R)-4-fluoro-2-((3-(2-hydroxy-6-methyl-4-(trifluoromethyl)phenyl)-6,7-dihydropyrido[2,3-c]pyridazin-8(5H)-yl)methyl)pyrrolidin-1-yl)propan-1-one]
629 nM	Cc1cc(C(F)(F)F)cc(O)c1-c1cc2c(nn1)N(C[C@@H]1C[C@H](F)CN1C)CCC2 [Example 13, 2-(8-(((2S,4S)-4-fluoro-1-methylpyrrolidin-2-yl)methyl)-5,6,7,8-tetrahydropyrido[2,3-c]pyridazin-3-yl)-3-methyl-5-(trifluoromethyl)phenol]
27 nM	Cc1cc(C(F)(F)F)cc(O)c1-c1cc2c(nn1)N([C@H]1CN(C)CC[C@H]1O)CCC2 [Example 14, (3S,4R)-3-(3-(2-hydroxy-6-methyl-4-(trifluoromethyl)phenyl)-6,7-dihydropyrido[2,3-c]pyridazin-8(5H)-yl)-1-methylpiperidin-4-ol]
5 nM	CCN1CCC[C@@H](N2CCCc3cc(-c4c(C)cc(C(F)(F)F)cc4O)nnc32)C1 [Example 2, (R)-2-(8-(1-ethylpiperidin-3-yl)-5,6,7,8-tetrahydropyrido[2,3-c]pyridazin-3-yl)-3-methyl-5-(trifluoromethyl)phenol]
